Test results published in US20010051628A1, “METHODS TO MODULATE THE RESISTANCE OF CELLS TO APOPTOSIS MEDIATED BY MUTANT EPIDERMAL GROWTH FACTOR RECEPTORS” (priority 1998, published 2001).

Columns and labels:
[1] = test system: glioma cell; settings: cited from earlier work; for serum-driven cell growth: dose-dependent
[2] = test system: nitric oxide synthase (NOS); settings: C6 glial cells; cited from earlier work
[3] = test system: glioma; settings: pre-treatment with LTC4; cited from earlier work
[4] = test system: caspase-3-like proteases; experiment: Caspase activity assay in lysates of treated cells (Ac-DEVD-pNA substrate); format: cell-based, human; settings: for CDDP-induced caspase activation on co-treatment with tyrphostin: U87MG.ΔEGFR cells, data not shown
Procedure: (A) Total cell lysates were prepared 2 days after treatment with 5 μg/ml CDDP. Samples were assayed for protease activity using the peptide substrate, Ac-DEVD-pNA. […] Cells were also treated with the plasma membrane-soluble caspase inhibitor Z-Asp-CH2DCB (200 μM) prior to and during CDDP treatment. □, U87MG; ▪, U87MG.ΔEGFR;_, U87MG.DK;_, U87MG.wtEGFR. […] (B) Proteolytic cleavage of PARP after CDDP treatment. For each sample, 20 μg total clarified protein lysate was loaded on to SDS-PAGE gels, electrophoresed, transferred to membranes and probed with anti-PARP monoclonal antibodies. FL, full-length; CF, cleaved fragment.
Cells were lysed in lysis buffer (ApoAlert, Clontech, Palo Alto, Calif.) for 15 min on ice, followed by centrifugation. Protease assays included 89 μl of reaction buffer (100 mM HEPES, pH 7.5, 20% v/v glycerol, 6 mM dithiothreitol, and 0.5 mM EDTA), I μl of 10 mM acetyl-Asp-Glu-Val-Asp-p-nitroanilide (Ac-DEVD-pNA) in DMSO (California Peptide Research, Inc., Napa, Calif.), and 10 μl of equal protein cell lysate. Samples were incubated at 37° C., and enzyme-catalyzed release of p-nitroanilide (pNA) was monitored at […] for 1 h in a microtiter plate reader (Molecular Devices Inc., Sunnyvale, Calif.). Aliquots of cell lysates diluted into the reaction buffer were first incubated with 10 μM caspase-3-like protease inhibitor, Ac-Asp-Glu-Val-Asp-aldehyde (Ac-DEVD-CHO) (Bachem, Torrance, Calif.), at 37° C. for 30 min. Values for picomoles of pNA released were calculated from those observed in OD405 values using a standard curve of pNA. One unit of protease activity was defined as the amount of enzyme required to release 1 pmol pNA/min at 37° C. For in vivo caspase inhibition studies, cells were cultured in the presence of peptide caspase inhibitor Z-Asp-CH2-DCB (Bachem).

[5] = test system: human glioma cell lines A172, U563 or U251; settings: cited from earlier work
[6] = test system: protein kinase C (PKC); settings: cited from earlier work
[7] = test system: U87MG.ΔEGFR cells; experiment: In situ TUNEL labeling of apoptotic DNA fragmentation; format: cell-based, human
Procedure: Cells were seeded on cover slips, treated with 5 μg/ml of CDDP for 2 days, and then TUNEL assays were performed. The percent of TUNEL-positive cells induced by CDDP treatment was assessed by counting more than 400 cells per coverslip. □, U87MG; ▪, U87MG.ΔEGFR;_, U87MG.DK;_, U87MG.wtEGFR.
For each sample, 20 μg of lysate was used. […] For control, the vehicle (DMSO) was used. Apoptosis rate determined by TUNEL assays of triplicate cover slips.
Apoptotic cells were detected by use of terminal deoxynucleotidyl transferase mediated nick end labeling (TUNEL) of apoptotic DNA strand breaks as described (16). Apoptotic index was calculated as a ratio of apoptotic cell number to total tumor cell number within the areas by counting more than 400 cells in each coverslip.

[8] = test system: Bcl-XL; experiment: Western blot of Bcl-XL expression; format: cell-based, human; settings: U87MG.ΔEGFR cells; 15 μM
Procedure: Total cell lysates were prepared at the various time points indicated. For each sample, 20 μg of lysate protein was used. Results were reproduced in three independent experiments. […] For each sample, 20 μg of lysate was used. […] For control, the vehicle (DMSO) was used. Apoptosis rate determined by TUNEL assays of triplicate cover slips. […] Cell lysates were prepared in RIPA buffer (16), equal protein per sample was separated on SDS-polyacrylamide gels, and transferred to nitrocellulose membranes (BioRad, Hercules, Calif.). Proteins on the membranes were probed with antibodies to Bcl-XL (Transduction, Lexington, Ky.), poly(ADP-ribose) polymerase (PARP) (C2-10; […]

[9] = test system: tumors; settings: EGF plus cisplatin versus cisplatin alone; cited from earlier work
[10] = test system: human glioblastoma spheroids; settings: cited from earlier work
[11] = test system: human glioblastoma cell lines; settings: read-out: IC20 for monolayer growth inhibition; cited from earlier work
[12] = test system: EGFR; settings: monolayers at the IC20 doses; cited from earlier work
[13] = test system: malignant glioma cell lines; settings: cited from earlier work
[14] = test system: U-87 glioma xenografts; settings: continuous intraperitoneal infusion; cited from earlier work

In the case of `COc1ccc(/C=C(\C#N)c2cccnc2)cc1OC` [RG 13022], the “EGF- and PDGF-induced DNA synthesis” value ([1]; 50 μmol/L) is given as “completely blocked”, the “DNA synthesis induced by growth factors (EGF, PDGF; serum for the tyrphostins)” value (shortened to “DNA synthesis induced by growth factors”) [1] is given as “dose-dependently inhibit” and the “cytotoxicity to the cells” value [1] is given as “no cytotoxic side effects”. The “selectivity in blocking either EGF or PDGF signaling” value [1] was “no selectivity” and the serum-driven cell growth [1] was “inhibit”.

In the case of `CO[C@H]1[C@@H](OC)C[C@H](C)[C@@H](OC)C2=CC(=O)C=C(NC(=O)/C(C)=C/C=C\[C@H](OC)[C@@H](OC(N)=O)/C(C)=C/[C@@H]1C)C2=O` [herbimycin A], the “NOS induced by LPS and IFN-gamma” value [2] is given as “suppressed”.

For `CCCCC/C=C\C\C=C/C=C/C=C/[C@@H](SC[C@H](NC(=O)CC[C@H](N)C(=O)O)C(=O)NCC(=O)O)[C@@H](O)CCCC(=O)O` [LTC4], the “survival of CDDP-treated animals” value [3] is listed as “increased survival to a statistically significant degree”.

For `COc1cc2ncnc(Nc3cccc(Br)c3)c2cc1OC` [AG1517], the “CDDP-induced caspase activation on co-treatment with tyrphostin” value [4] was “enhanced”.

In the case of `CO[C@@H]1[C@H](N(C)C(=O)c2ccccc2)C[C@H]2O[C@]1(C)n1c3ccccc3c3c4c(c5c6ccccc6n2c5c31)C(=O)NC4` [CGP 41 251], the proliferation rate [5] is listed as “reduced” and the PKC activity [6] is listed as “reduced”.

With `COc1cc2ncnc(Nc3cccc(Cl)c3)c2cc1OC` [AG1478] the “apoptosis induction, tyrphostin in combination with CDDP” value ([7]; U87MG.ΔEGFR cells, CDDP 5 μg/ml for 2 days, concentrations per FIG. 6B) was “significant apoptosis in a dose-dependent and synergistic manner”, the “CDDP-induced caspase activation on co-treatment with tyrphostin” value [4] was “enhanced” and the Bcl-XL expression [8] was “marked reduction”.

In the case of `N#CC(C#N)=Cc1cc(O)c(O)c(O)c1` [RG 50875], the “DNA synthesis induced by growth factors” value [1] is listed as “dose-dependently inhibit”, the “cytotoxicity to the cells” value [1] is listed as “no cytotoxic side effects” and the “selectivity in blocking either EGF or PDGF signaling” value [1] is listed as “no selectivity”. For the same molecule, the serum-driven cell growth [1] was “inhibit”.

With `O=C(O)C[C@H](NC(=O)OCc1ccccc1)C(=O)COC(=O)c1c(Cl)cccc1Cl` [Z-Asp-CH2-DCB] the “effect on CDDP-induced apoptosis” value ([7]; cells treated with CDDP in the presence of the inhibitor, data not shown) was “significant inhibition” and the “caspase-3-like protease activity of cells treated with CDDP in the presence of the inhibitor” value ([4]; 200 μM prior to and during CDDP treatment, U87MG and sublines) was “did not exhibit an increase”.

In the case of “EGF: epidermal growth factor administered with cisplatin (NSDSECPLSHDGYCLHDGVCMYIEALDKYACNCVVGYIGERCQYRDLKWWELR; Epidermal growth factor; UniProt P01133 971-1023, looked up)”, the “cisplatin-induced tumor cell kill (final tumor volume)” value [9] is given as “significantly enhance”.

In the case of `N#CC(C#N)=Cc1cc(O)c(O)c(O)c1` [tyrphostin A25], the invasion ([10]; tyrphostin A25 at 3 μmol/L, third cell line) is given as “reduced invasion”, the IC20 [11] is given as 3 µM and the EGFR-associated tyrosine phosphorylation [12] is given as “no change”.

For `O=c1c(-c2ccc(O)cc2)coc2cc(O)cc(O)c12` [genistein], the infiltration ([10]; genistein at 10 μmol/L) is listed as “completely inhibited”, the IC20 [11] is listed as 10 µM and the EGFR-associated tyrosine phosphorylation [12] is listed as “no change”. The proliferation rate [5] was “inhibited”, the PKC activity [6] was “dose dependently reduced” and the “DNA synthesis induced by growth factors” value [1] was “inhibited”. The “cytotoxicity to the cells” value [1] was “cytotoxic”.

In the case of `CN[C@@H]1C[C@H]2O[C@@](C)([C@@H]1OC)n1c3ccccc3c3c4c(c5c6ccccc6n2c5c31)C(=O)N[C@H]4O` [UCN-01, seven-hydroxystaurosporine], the “combination with 1,3-bis(2-chloroethyl)-1-nitrosourea, inhibition of glioma cell proliferation” value [13] is listed as “additive effects”, the “combination with cisplatin, inhibition of glioma cell proliferation” value [13] is listed as “synergistic effects” and the “activity against U-87 glioma xenografts” value [14] is listed as “significant activity”.
